Source: PubChem BioAssay (NCI)
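These data come from cells grown in 96-well plates and exposed to compound for 48 hours at five concentrations. Here, GI50 denotes the concentration required for 50% inhibition of growth. Definition used: TGI = concentration required for complete inhibition of growth.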

Key:
Assay in all cases: NCI anticancer screen, dose series, 48 h
[1] = tested on: SNB-75 CNS
[2] = tested on: K-562 leukemia
[3] = tested on: MDA-MB-435
[4] = tested on: RXF 393 renal
[5] = tested on: SK-MEL-28 melanoma
[6] = tested on: M14 melanoma
[7] = tested on: HCT-116 colon
[8] = tested on: UACC-257 melanoma
[9] = tested on: MOLT-4 leukemia
[10] = tested on: SR leukemia

Compound | GI50 [1] | TGI [1] | GI50 [2] | TGI [2] | GI50 [3] | TGI [3] | GI50 [4] | TGI [4] | GI50 [5] | TGI [5] | GI50 [6] | TGI [6] | GI50 [7] | TGI [7] | GI50 [8] | TGI [8] | TGI [9] | TGI [10] | GI50 [10]
Cc1cc(C)c([I+]c2c(C)cc(C)cc2C)c(C)c1 | 0.342 µM | 1.39 µM | 0.319 µM | 1.43 µM | 0.327 µM | 1.24 µM | 0.398 µM | 1.55 µM | 0.774 µM | 2.08 µM | 0.44 µM | 1.69 µM | 0.348 µM | 1.35 µM | 0.296 µM | 1.09 µM |  |  | 
CC(C)(C)OC(=O)NC(Cc1ccccc1)C(=S)N1CCCC1 (stereo not drawn) |  | > 100 µM |  | > 100 µM |  |  |  | > 100 µM |  | > 100 µM |  | > 100 µM |  | > 100 µM |  | > 100 µM | > 100 µM |  | 
COc1nc(NC2OC(COC(C)=O)C(OC(C)=O)C(OC(C)=O)C2OC(C)=O)c(N=C(C)C(C)=O)c(=O)n1C (stereo not drawn) |  | > 100 µM |  | > 100 µM |  |  |  | > 100 µM |  |  |  | > 100 µM |  | > 100 µM |  | > 100 µM | > 100 µM |  | 
OCC1CC2C=CCC(C2)C1 (stereo not drawn) |  | > 100 µM |  | > 100 µM |  |  |  | > 100 µM |  | > 100 µM |  | > 100 µM |  | > 100 µM |  | > 100 µM | > 100 µM | > 100 µM | 
O=[N+]([O-])c1cc(I)cc(/C=N/NS(=O)(=O)c2ccc(F)cc2)c1O |  | 66.3 µM |  | 52.7 µM |  |  |  | 49.9 µM |  | 81.6 µM |  | 82.3 µM |  | 43.3 µM |  | 62.3 µM | 57.7 µM | 46.2 µM | 
O=C1CC=C2C3CC4N(CCC45c4ccccc4N1C25)C/C3=C\CO (stereo not drawn) |  | > 100 µM |  | > 100 µM |  | > 100 µM |  |  |  | > 100 µM |  |  |  | > 100 µM |  | > 100 µM | > 100 µM |  | 
CCOC(=O)NC(=O)c1cn(C2CCCCC2)c(=O)n(C)c1=O |  | > 100 µM |  | > 100 µM |  |  |  | > 100 µM |  | > 100 µM |  | > 100 µM |  | > 100 µM |  | > 100 µM | > 100 µM | > 100 µM | 
C[N+]1(CCNP(=S)(NCC[N+]2(C)Cc3c(ccc4c3OCO4)C3C2c2cc4c(cc2C[C@@H]3O)OCO4)NCC[N+]2(C)Cc3c(ccc4c3OCO4)C3C2c2cc4c(cc2C[C@@H]3O)OCO4)Cc2c(ccc3c2OCO3)C2C1c1cc3c(cc1C[C@H]2O)OCO3 (stereo partly drawn) | 1.18 µM |  | 2.32 µM |  |  |  | 1.76 µM |  | 3.51 µM |  |  | < 0.00191 µM | 1.43 µM |  | 1.44 µM |  |  |  | 1.75 µM
CCCC(=O)Oc1ccc(/C=N/NC(N)=S)nc1 |  | > 100 µM |  | > 100 µM |  |  |  | > 100 µM |  | > 100 µM |  | > 100 µM |  | > 100 µM |  | > 100 µM | > 100 µM | > 100 µM | 
Cc1ccccc1SC(/C=C/NNC1=NC(c2ccccc2)C(c2ccccc2)=NN1)c1ccccc1 (stereo not drawn) |  | 20.8 µM |  | > 100 µM |  |  |  | 31.2 µM |  | 43 µM |  | 87.6 µM |  |  |  | > 100 µM | > 100 µM |  | 
CCCCSC1CCSc2c1ccc1ccccc21 (stereo not drawn) |  |  |  | > 100 µM |  |  |  | > 100 µM |  | > 100 µM |  | > 100 µM |  | > 100 µM |  |  | > 100 µM | > 100 µM | 
CC(=O)NNc1ncc(C(=O)/C=C/c2ccccc2C)s1 |  | > 100 µM |  | > 100 µM |  |  |  | > 100 µM |  | > 100 µM |  |  |  |  |  | > 100 µM | > 100 µM |  | 
Clc1ccc(-c2nnc(-c3nn(-c4ccccc4)c4nc5ccccc5nc34)o2)cc1 |  | > 100 µM |  | > 100 µM |  |  |  | > 100 µM |  | > 100 µM |  | > 100 µM |  | > 100 µM |  | > 100 µM | 81.6 µM |  | 
CON1C(=O)C2(CCCCC2)C(=O)C12C=CC(C)CC2 (stereo not drawn) |  | > 100 µM |  | > 100 µM |  |  |  | > 100 µM |  | > 100 µM |  | > 100 µM |  |  |  | > 100 µM | > 100 µM |  | 
Nc1ccc(C(=O)CC2(O)C(=O)Nc3ccccc32)cc1 (stereo not drawn) |  | > 100 µM |  | > 100 µM |  |  |  | > 100 µM |  | > 100 µM |  | > 100 µM |  | > 100 µM |  | > 100 µM | > 100 µM |  | 
Cn1nc(-c2ccccc2)c2c(/C=C/c3ccc(F)cc3)onc2c1=O |  |  |  | > 100 µM |  |  |  | 70.7 µM |  | > 100 µM |  | > 100 µM |  | > 100 µM |  |  | > 100 µM |  | 
Cc1ccc([N+](=O)[O-])cc1NC(=O)C(=O)Cc1nc2ccc(C(=O)c3ccccc3)cc2[nH]c1=O |  | > 100 µM |  |  |  |  |  | > 100 µM |  | > 100 µM |  | > 100 µM |  | > 100 µM |  | > 100 µM | > 100 µM | > 100 µM | 
COc1cccc(/C=C2\N=C(Cl)OC2=O)c1O |  | > 93.3 µM |  | > 100 µM |  |  |  | > 100 µM |  | > 100 µM |  | > 100 µM |  | > 100 µM |  | > 100 µM | > 100 µM | > 100 µM | 
